Data: publication PMC5807214 (ACS infectious diseases, 2017)

Key:
MexG-HAWA = target: T1, MexG-HAWA (Pseudomonas aeruginosa, UniProt Q9HWH6, H95A/W98A); assay: intrinsic tryptophan fluorescence quenching; type: binding
T1 sequence (Q9HWH6 1-148 H95A/W98A): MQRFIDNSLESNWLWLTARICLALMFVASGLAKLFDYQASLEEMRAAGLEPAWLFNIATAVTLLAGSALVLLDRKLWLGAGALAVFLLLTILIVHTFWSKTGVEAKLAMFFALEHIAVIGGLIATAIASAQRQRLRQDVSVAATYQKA

MexG = MexG (Pseudomonas aeruginosa, UniProt Q9HWH6); assay: intrinsic tryptophan fluorescence quenching; type: binding

Cn1c2cccc(=O)c-2nc2ccccc21 [pyocyanin]
Kd (MexG-HAWA): ~7 µM
Kd (MexG): ~600 nM
